From ChEMBL document CHEMBL1149970, “Novel dithiocarbamate carbapenems1 with anti-MRSA activity” (Bioorg Med Chem Lett, 1997)
In brackets after ≈: the same amount, converted by molar mass.

Legend:
Staphylococcus aureus [1] = experiment: In vitro antibacterial activity against staphylococcus aureus CSa1009 (Methicillin-resistant strain and b beta-Lactamase producing strain); type: functional
[2] = tested on: Staphylococcus epidermidis; experiment: In vitro antibacterial activity against Staphylococcus epidermidis MB5181a organism; type: functional
[3] = target: T1, Dipeptidase 1 (Sus scrofa) (UniProt P22412); experiment: Relative rate of hydrolysis of porcine renal dehydropeptidase-I (DHP-I) to imipenem; type: functional
T1 sequence (whole entry): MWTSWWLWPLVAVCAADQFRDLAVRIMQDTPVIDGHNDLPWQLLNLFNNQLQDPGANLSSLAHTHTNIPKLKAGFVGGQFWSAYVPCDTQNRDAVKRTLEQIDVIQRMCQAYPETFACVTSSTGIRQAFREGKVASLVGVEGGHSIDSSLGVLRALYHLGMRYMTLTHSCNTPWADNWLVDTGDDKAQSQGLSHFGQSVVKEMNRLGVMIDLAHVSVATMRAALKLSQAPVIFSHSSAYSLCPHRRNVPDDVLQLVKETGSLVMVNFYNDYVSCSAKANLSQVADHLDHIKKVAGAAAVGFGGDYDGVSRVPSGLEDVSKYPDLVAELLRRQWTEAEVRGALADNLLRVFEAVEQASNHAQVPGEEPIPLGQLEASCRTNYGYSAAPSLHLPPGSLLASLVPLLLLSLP

Enterococcus faecalis = experiment: In vitro antibacterial activity against Enterococcus faecalis MB4996 organism; type: functional
Staphylococcus aureus [4] = experiment: In vitro antibacterial activity against staphylococcus aureus 209P NIHJ JC1 organism; type: functional
Staphylococcus aureus [5] = experiment: In vitro antibacterial activity against staphylococcus aureus BB6294 organism (Methicillin-resistant strain); type: functional
Pseudomonas aeruginosa = experiment: In vitro antibacterial activity against Pseudomonas aeruginosa MB5002 organism; type: functional
Escherichia coli = experiment: In vitro antibacterial activity against Escherichia coli NIHJ JC2 organism; type: functional
Staphylococcus aureus [6] = experiment: Compound was tested in vivo for its anti-methicillin-resistant staphylococcus aureus(MRSA); type: functional
Mus musculus = organism: Mus musculus; experiment: Compound was measured for binding rate for mouse serum at a carbapenem concentration of 10 ug/mL; type: functional
Staphylococcus aureus [7] = experiment: Compound was tested in vitro for its anti-methicillin-resistant staphylococcus aureus(MRSA); 3.13-6.25; type: functional
[8] = PBP-2'' affinity was determined by the competition assay with [14C]benzylpenicillin using membrane isolated from MRSA BB6294 strain; type: functional, Staphylococcus aureus
[9] = Compound was measured for binding rate for human serum at a carbapenem concentration of 10 ug/mL; type: ADME; details: read-out: Protein binding (converted)
[10] = target: T1, Dipeptidase 1 (Sus scrofa); experiment: Compound was measured for DHP-I susceptibility; type: functional
Rattus norvegicus = experiment: Epileptogenicity of compound was measured at 100 ug/rat head by the rat intraventricular assay; 0/5; type: functional, Cerebral ventricle
[11] = Staphylococcus epidermidis, read-out: MIC

Row | SMILES | MIC (Staphylococcus aureus [1]) [µg/mL] | MIC [2, 11] [µg/mL] | DHP-I susceptibility [3] | MIC (Enterococcus faecalis) [µg/mL] | MIC (Staphylococcus aureus [4]) [µg/mL] | MIC (Staphylococcus aureus [5]) [µg/mL] | MIC (Pseudomonas aeruginosa) [µg/mL] | MIC (Escherichia coli) [µg/mL] | MIC [2] [pug ml-1] | ED50 (Staphylococcus aureus [6]; Staphylococcus aureus) [mg/kg] | PPB (Mus musculus) [%] | ED50 (Staphylococcus aureus [6]) [mg/kg] | MIC (Staphylococcus aureus [7]) [µg/mL] | IC50 [8] [µg/mL] | fraction unbound at 10 ug/mL [9] | DHP-I susceptibility [10] | Epileptogenicity (Rattus norvegicus)
1 | C[C@@H](O)[C@H]1C(=O)N2C(C(=O)[O-])=C(SC(=S)N3CC[N+](C)(C)CC3)[C@H](C)[C@H]12 | 12.5 (≈ 31.3 µM) | 3.13 (≈ 7.83 µM) | 0.11 | 1.56 (≈ 3.9 µM) | 0.012 (≈ 0.03 µM) | 3.13 (≈ 7.83 µM) | > 25 | 0.1 (≈ 0.25 µM) |  |  |  |  |  |  |  |  | 
2 | C=CCN(CCCO)C(=S)SC1=C(C(=O)O)N2C(=O)[C@H]([C@@H](C)O)[C@H]2[C@H]1C | 3.13 (≈ 7.81 µM) |  | 1.39 | 6.25 (≈ 15.6 µM) | 0.025 (≈ 0.0624 µM) | 3.13 (≈ 7.81 µM) | > 25 | 12.5 (≈ 31.2 µM) | 3.13 |  |  |  |  |  |  |  | 
3 | C[C@@H](O)[C@H]1C(=O)N2C(C(=O)O)=C(SC(=S)N(C)c3ccccc3)[C@H](C)[C@H]12 | 3.13 (≈ 7.97 µM) | 1.56 (≈ 3.97 µM) | 2.29 | 6.25 (≈ 15.9 µM) | 0.05 (≈ 0.127 µM) | 1.56 (≈ 3.97 µM) | > 25 | > 25 |  |  |  |  |  |  |  |  | 
4 | CN[C@H](CC(C)C)C(=O)N[C@H]1C(=O)N[C@@H](CC(N)=O)C(=O)N[C@H]2C(=O)N[C@H]3C(=O)N[C@H](C(=O)N[C@H](C(=O)O)c4cc(O)cc(O)c4-c4cc3ccc4O)[C@H](O)c3ccc(c(Cl)c3)Oc3cc2cc(c3O[C@@H]2O[C@H](CO)[C@@H](O)[C@H](O)[C@H]2O[C@H]2C[C@](C)(N)[C@H](O)[C@H](C)O2)Oc2ccc(cc2Cl)[C@H]1O [VANCOMYCIN] |  |  |  |  | 0.39 (≈ 0.269 µM) |  | > 25 | > 25 |  | 5.56 |  |  |  |  |  |  | 
5 | C[C@@H](O)[C@H]1C(=O)N2C(C(=O)O)=C(SC(=S)N3CCN(C)CC3)[C@H](C)[C@H]12 | 6.25 (≈ 16.2 µM) | 3.13 (≈ 8.12 µM) | 1.53 | 6.25 (≈ 16.2 µM) | 0.025 (≈ 0.0648 µM) | 3.13 (≈ 8.12 µM) | > 25 | 1.56 (≈ 4.05 µM) |  |  |  |  |  |  |  |  | 
6 | C[C@@H](O)[C@H]1C(=O)N2C(C(=O)O)=C(SC(=S)N(C)C)[C@H](C)[C@H]12 | 6.25 (≈ 18.9 µM) | 6.25 (≈ 18.9 µM) | 2.12 | 12.5 (≈ 37.8 µM) | 0.012 (≈ 0.0363 µM) | 3.13 (≈ 9.47 µM) | 25 (≈ 75.7 µM) | 6.25 (≈ 18.9 µM) |  |  | 69 | 5.91 | 4.59 (≈ 13.9 µM) | 9.6 (≈ 29.1 µM) | 0.12 | 2.12 | 0
7 | CCN(C)C(=S)SC1=C(C(=O)O)N2C(=O)[C@H]([C@@H](C)O)[C@H]2[C@H]1C | 3.13 (≈ 9.09 µM) | 3.13 (≈ 9.09 µM) | 2.26 | 6.25 (≈ 18.1 µM) | 0.025 (≈ 0.0726 µM) | 3.13 (≈ 9.09 µM) | > 25 | 6.25 (≈ 18.1 µM) |  |  |  |  |  |  |  |  | 
8 | CCN(CC)C(=S)SC1=C(C(=O)O)N2C(=O)[C@H]([C@@H](C)O)[C@H]2[C@H]1C | 3.13 (≈ 8.73 µM) | 3.13 (≈ 8.73 µM) | 2.51 | 12.5 (≈ 34.9 µM) | 0.025 (≈ 0.0697 µM) | 3.13 (≈ 8.73 µM) | 25 (≈ 69.7 µM) | 25 (≈ 69.7 µM) |  |  |  |  |  |  |  |  | 
9 | CCCN(C)C(=S)SC1=C(C(=O)O)N2C(=O)[C@H]([C@@H](C)O)[C@H]2[C@H]1C | 3.13 (≈ 8.73 µM) | 3.13 (≈ 8.73 µM) | 2.71 | 6.25 (≈ 17.4 µM) | 0.025 (≈ 0.0697 µM) | 3.13 (≈ 8.73 µM) | 25 (≈ 69.7 µM) | 25 (≈ 69.7 µM) |  |  |  |  |  |  |  |  | 
10 | CCN(CCO)C(=S)SC1=C(C(=O)O)N2C(=O)[C@H]([C@@H](C)O)[C@H]2[C@H]1C | 6.25 (≈ 16.7 µM) | 3.13 (≈ 8.36 µM) | 2.38 | 6.25 (≈ 16.7 µM) | 0.025 (≈ 0.0668 µM) | 6.25 (≈ 16.7 µM) | > 25 | 6.25 (≈ 16.7 µM) |  |  |  |  |  |  |  |  | 
11 | C[C@@H](O)[C@H]1C(=O)N2C(C(=O)O)=C(SC(=O)N3CCCC3)[C@H](C)[C@H]12 | 25 (≈ 73.4 µM) | 25 (≈ 73.4 µM) | 0.65 |  | 0.05 (≈ 0.147 µM) | 25 (≈ 73.4 µM) |  |  |  |  |  |  |  |  |  |  | 
12 | C[C@@H](O)[C@H]1C(=O)N2C(C(=O)O)=C(SC(=S)N3CCC3)[C@H](C)[C@H]12 | 6.25 (≈ 18.3 µM) | 6.25 (≈ 18.3 µM) | 3.03 | 6.25 (≈ 18.3 µM) | 0.025 (≈ 0.073 µM) | 3.13 (≈ 9.14 µM) | > 25 | 3.13 (≈ 9.14 µM) |  |  |  |  |  |  |  |  | 
13 | C[C@@H](O)[C@H]1C(=O)N2C(C(=O)O)=C(SC(=S)N3CCC(O)CC3)[C@H](C)[C@H]12 | 6.25 (≈ 16.2 µM) | 6.25 (≈ 16.2 µM) | 2.23 | 6.25 (≈ 16.2 µM) | 0.025 (≈ 0.0647 µM) | 6.25 (≈ 16.2 µM) | > 25 | 3.13 (≈ 8.1 µM) |  |  |  |  |  |  |  |  | 
14 | C[C@@H](O)[C@H]1C(=O)N2C(C(=O)O)=C(SC(=S)N3CCCC3)C[C@H]12 | 25 (≈ 73 µM) | 12.5 (≈ 36.5 µM) | 11.7 |  | 0.025 (≈ 0.073 µM) | 6.25 (≈ 18.3 µM) |  |  |  |  |  |  |  |  |  |  | 
15 | C[C@@H](O)[C@H]1C(=O)N2C(C(=O)O)=C(SC(=S)N3CCCCC3)[C@H](C)[C@H]12 | 3.13 (≈ 8.45 µM) | 3.13 (≈ 8.45 µM) | 3.1 | 6.25 (≈ 16.9 µM) | 0.025 (≈ 0.0675 µM) | 1.56 (≈ 4.21 µM) | > 25 | 25 (≈ 67.5 µM) |  |  |  |  |  |  |  |  | 
16 | C[C@@H](O)[C@H]1C(=O)N2C(C(=O)O)=C(SC(=S)N3CCCCCC3)[C@H](C)[C@H]12 | 1.56 (≈ 4.06 µM) | 1.56 (≈ 4.06 µM) | 3.09 | 6.25 (≈ 16.3 µM) | 0.012 (≈ 0.0312 µM) | 1.56 (≈ 4.06 µM) | > 25 | > 25 |  |  |  |  |  |  |  |  | 
17 | C[C@@H](O)[C@H]1C(=O)N2C(C(=O)O)=C(SC(=S)N3CCCC(O)CC3)[C@H](C)[C@H]12 (some centres not stated) | 3.13 (≈ 7.81 µM) | 3.13 (≈ 7.81 µM) | 2.88 | 3.13 (≈ 7.81 µM) | 0.012 (≈ 0.03 µM) | 3.13 (≈ 7.81 µM) | > 25 | 12.5 (≈ 31.2 µM) |  |  | 92 | 2.88 | 3.55 (≈ 8.86 µM) | 1.9 (≈ 4.74 µM) | 0.15 | 2.88 | 0
18 | C[C@@H](O)[C@H]1C(=O)N2C(C(=O)O)=C(SC(=S)N3CC(O)C3)[C@H](C)[C@H]12 | 6.25 (≈ 17.4 µM) | 3.13 (≈ 8.73 µM) | 2.32 | 12.5 (≈ 34.9 µM) | 0.025 (≈ 0.0697 µM) | 6.25 (≈ 17.4 µM) | > 25 | 0.78 (≈ 2.18 µM) |  |  |  |  |  |  |  |  | 
19 | C[C@@H](O)[C@H]1C(=O)N2C(C(=O)O)=C(SC(=S)N3CCC(O)C3)[C@H](C)[C@H]12 (some centres not stated) | 6.25 (≈ 16.8 µM) | 3.13 (≈ 8.4 µM) | 2.21 | 6.25 (≈ 16.8 µM) | 0.025 (≈ 0.0671 µM) | 6.25 (≈ 16.8 µM) | > 25 | 0.78 (≈ 2.09 µM) |  |  |  |  |  |  |  |  | 
20 | C[C@@H](O)[C@H]1C(=O)N2C(C(=O)O)=C(SC(=S)N(C)c3cccs3)[C@H](C)[C@H]12 | 3.13 (≈ 7.85 µM) | 0.78 (≈ 1.96 µM) | 2.05 | 3.13 (≈ 7.85 µM) | < 0.006 | 1.56 (≈ 3.91 µM) | > 25 | 12.5 (≈ 31.4 µM) |  |  |  |  |  |  |  |  | 
21 | C[C@@H](O)[C@H]1C(=O)N2C(C(=O)O)=C(SC(=S)N(C)Cc3ccccc3)[C@H](C)[C@H]12 | 1.56 (≈ 3.84 µM) | 3.13 (≈ 7.7 µM) | 1.94 | 1.56 (≈ 3.84 µM) | 0.012 (≈ 0.0295 µM) | 1.56 (≈ 3.84 µM) | > 25 | 12.5 (≈ 30.7 µM) |  |  |  |  |  |  |  |  | 
